Experimental data taken from patent publication US20250057823A1, “COMPOSITION FOR IMPROVING CARDIAC FUNCTION” (Kyoto University, priority 2021, published 2025).
Counter-ions that a name gives are not always drawn.

What was measured:
Type in all cases: in vivo
[1] = tested on: mouse models of pressure overload-induced cardiac hypertrophy/heart failure (TAC); experiment: Mouse models of pressure overload-induced (TAC) heart failure during acute phase; settings: TAC mice, 50 mg/kg i.p. immediately after TAC, three hours later
Method: (§1) Transverse aortic constriction (TAC) was performed as described previously [Date, et al. (2002) The antioxidant N-2-mercaptopropionyl glycine attenuates left ventricular hypertrophy in in vivo murine pressure-overload model. J Am Coll Cardiol 39: 907-912.]. Briefly, 8- to 10-week-old mice were anesthetized with anesthetic (0.3 mg/kg of medetomidine, 4.0 mg/kg of midazolam, and 5.0 mg/kg of butorphanol) administered intraperitoneally, and the proximal portion of the sternum was cut open to visualize the aorta. A 7-0 silk suture was placed around the aortic arch distal to the brachiocephalic artery. The suture was tightened firmly around a blunt 26-gauge needle placed adjacent to the aorta. The needle was then removed, and the chest and overlying skin were closed. Sham-operated mice underwent an identical surgical procedure without ligation of the aortic arch. At the end of the operation, 0.3 mg/kg of atipamezole was administered subcutaneously to reverse medetomidine. FIG. 1 is a schematic diagram of TAC.
To extract total RNA, tissue samples were homogenized using a polytron homogenizer in 1 mL of TriPure reagent (Sigma-Aldrich), and the total RNA was extracted in accordance with the manufacture's protocol. Total RNA extracted from cells was also isolated using 1 mL of TriPure reagent. The quantity and quality of total RNA were determined using a NanoDrop™2000 spectrophotometer (Thermo Scientific).
Total RNA was reverse transcribed by blend primer of random hexamers and oligo-dT 3:1 (volume/volume) using Verso™ cDNA Synthesis Kit (Thermo Fisher Scientific, AB1453A) in accordance with the manufacturer's protocol, and the cDNA was analyzed by qRT-PCR. qRT-PCR measurements used THUNDERBIRD SYBR qPCR Mix (TOYOBO) in accordance with the manufacturer's instructions. Expression levels of messenger RNAs (mRNAs) were normalized by the indicated housekeeping genes, and calculated by the 2^−ΔΔCt method. All analyses were performed using a StepOnePlus real-time PCR system and StepOne Software v2.3 (Applied Biosystems, Inc). […]

[2] = tested on: mouse models of pressure overload-induced cardiac hypertrophy/heart failure (TAC); experiment: Mouse models of TAC heart failure during heart failure phase; settings: 50 mg/kg i.p. daily for 3 weeks starting 5 weeks after TAC
Method: as §1
(§2) Total RNA was reverse transcribed by blend primer of random hexamers and oligo-dT 3:1 (volume/volume) using Verso™ cDNA Synthesis Kit (Thermo Fisher Scientific, AB1453A) in accordance with the manufacturer's protocol, and the cDNA was analyzed by qRT-PCR. qRT-PCR measurements used THUNDERBIRD SYBR qPCR Mix (TOYOBO) in accordance with the manufacturer's instructions. Expression levels of messenger RNAs (mRNAs) were normalized by the indicated housekeeping genes, and calculated by the 2^−ΔΔCt method. All analyses were performed using a StepOnePlus real-time PCR system and StepOne Software v2.3 (Applied Biosystems, Inc).
Tissues were fixed with 4% paraformaldehyde, dehydrated with 70% ethanol, and then embedded in paraffin. Deparaffinized sections were stained with hematoxylin solution for cell nucleus, and stained with eosin solution for cytoplasm. Images were captured by Axio Observer7 (Zeiss). Cardiomyocyte cross-sectional area measurement was performed using ImageJ64 software (NIH). Approximately 150-200 cells were measured per heart, and averages were used for the analysis.
As described above, deparaffinized sections were stained with hematoxylin solution for cell nucleus, Masson solution for cytoplasm, and aniline blue for collagen fiber. Images were captured by a microscopy (BZ-9000, Keyence). Aniline blue-stained regions were measured using ImageJ64 software (NIH).
(§3) To analyze the cardiac function, we used Vevo® 2100 (VISUALSONICS) at the indicated time points after TAC operation. Mice were kept under inhalation anesthesia with 2.5% isoflurane. LV function was measured in M mode of the parasternal short-axis view.
(§4) Mouse models of pressure overload-induced cardiac hypertrophy/heart failure were prepared by TAC and were injected intraperitoneally with 50 mg/kg of KUS121 daily for 3 weeks starting 5 weeks after TAC. Sham-operated mice and control mice were injected with 5% glucose. Echocardiography was performed 5 weeks and 8 weeks after TAC. Eight weeks after TAC, the mice were sacrificed, the body weight and heart weight were measured, and heart samples were collected.

mouse models of HFpEF = experiment: Mouse models of HFpEF (high-fat diet + L-NAME), acute effect; settings: high-fat diet+L-NAME group
Method: Mouse models of HFpEF were prepared by high-fat diet and administration of L-NG-nitroarginine methyl ester (L-NAME) to test the effect of KUS121 on HFpEF. ICR mice were fed with normal diet and ultrapure water or high-fat diet and 0.5 g/L of L-NAME for 5 weeks.
Then, acute effect of KUS121 on HFpEF was tested. ICR mice fed with normal diet or high-fat diet+0.5 g/L of L-NAME were injected intraperitonially with 50 mg/kg of KUS121 and cardiac function was assessed by echocardiography before and 10 minutes after the injection. No difference in echocardiography was observed between the normal diet group and the high-fat diet+L-NAME group before injection of 5% glucose or KUS121 (FIG. 26). EF was not changed after […] in the control group and the high-fat diet+L-NAME group (FIG. 26, left and middle), but was increased after KUS121 injection in the high-fat diet+L-NAME group (FIG. 26, right).
Diastolic function was also tested. Global longitudinal strain (GLS), E/A, and E/E′ were assessed for evaluating cardiac diastolic function. Mice from the high-fat diet+L-NAME group had diastolic dysfunction as indicated by high levels of GLS, E/A, and E/E′ before KUS121 administration, the degree of which varied among the individual animals (FIG. 27).
To assess exercise tolerance, treadmill test (TMT) was performed.

[3] = tested on: mouse models of pressure overload-induced cardiac hypertrophy/heart failure (TAC); experiment: Mouse models of TAC heart failure during cardiac hypertrophic phase
Method: as §1, §2
Wheat Germ Agglutinin (WGA) Staining and the Quantification Paraffin-embedded ventricular short-axis sections were stained with FITC-conjugated lectin (Sigma, L4895). Images were captured by Axio Observer7 (Zeiss). Cardiomyocyte cross-sectional area measurement was performed using ImageJ64 software (NIH). Approximately 150-200 cells were measured per heart, and averages were used for the analysis.
as §3
as §4, with “2” for “3”, “immediately” for “5 weeks”, “Two” for “Echocardiography was performed 5 weeks and 8 weeks after TAC. Eight”, “TAC, echocardiography was performed, then” for “TAC,”

[4] = 50 mg/kg i.p., before and after administration
[5] = TAC mice, 50 mg/kg i.p. daily for 2 weeks starting immediately after TAC
[6] = echocardiography two weeks after TAC, 50 mg/kg i.p. daily
[7] = heart tissue, qRT-PCR, 50 mg/kg i.p. daily for 2 weeks after TAC

Cc1cc(F)ccc1-c1ccc(/N=N/c2cc(S(=O)(=O)O)c3ccccc3c2N)cn1 [KUS121, 4-amino-3-[6-(4-fluoro-2-methylphenyl)pyridine-3-ylazo]naphthalene-1-sulfonic acid sodium salt]
ratio of heart weight to body weight [1]: not significantly affected | mRNA level of BNP ([1]; vs 5% glucose control): suppressed the increases | ratio of lung weight to body weight ([1]; vs 5% glucose control): suppressed the increases | cardiomyocyte cross-sectional area ([2]; TAC mice): suppressed it | fibrotic area in Masson's trichrome-stained heart ([2]; TAC mice): suppressed | heart weight ([2]; TAC mice, 8 weeks after TAC): suppressed the increase in heart weight | left ventricular systolic dysfunction (LVEF, echocardiography) ([2]; TAC mice, 8 weeks after TAC): suppressed the dysfunction | mRNA level of Col1a1 (cardiac fibrosis marker) ([2]; heart, qRT-PCR): suppressed | mRNA level of Postn (cardiac fibrosis marker) ([2]; heart, qRT-PCR): suppressed | mRNA level of VCP ([2]; heart, qRT-PCR): increased the mRNA level of VCP | mRNA levels of ANF, BNP, CHOP and Bip (other cardiac hypertrophy and endoplasmic reticulum stress markers) ([2]; heart, qRT-PCR): did not significantly affect the other mRNA levels | E/A (mouse models of HFpEF; [4]): improved | E/E′ (mouse models of HFpEF; [4]): improved | Global longitudinal strain (GLS) (mouse models of HFpEF; [4]): improved | EF (left ventricular ejection fraction) (mouse models of HFpEF; 50 mg/kg i.p., echocardiography before and 10 minutes after injection): increased | blood pressure (mouse models of HFpEF; before and after 50 mg/kg): lowered the blood pressure | exercise tolerance (distance traveled in treadmill test) (mouse models of HFpEF; before and after 50 mg/kg): improved the exercise tolerance | heart rate (mouse models of HFpEF; before and after 50 mg/kg): slightly lowered the heart rate | cardiomyocyte cross-sectional area (WGA staining) [3, 5]: suppressed the increase | heart weight [3, 5]: suppressed the increases | ratio of heart weight to body weight [3, 5]: suppressed the increases | interventricular septum diameter at end-diastole (IVSd) [3, 6]: suppressed both | left ventricular ejection fraction (LVEF) [3, 6]: did not significantly suppress the decrease | left ventricular mass [3, 6]: suppressed both | mRNA levels of cardiac hypertrophy markers (BNP and ANF) [3, 7]: suppressed the increases | mRNA levels of endoplasmic reticulum stress markers (Bip, CHOP, and VCP) [3, 7]: not significantly affected
